Patent US5914242A, “Method for diminishing myocardial infarction using protein phosphatase inhibitors” (priority 1997, dated 1999)

Tested on: PP1/PP2A-chimera (CRHM2)
Test: Inhibition of recombinant PP1/PP2A chimera
Assay type: biochemical, human PP1 / bovine PP2A
Method: FIG. 6: Sequence of a PP1/PP2A chimera. To characterize the fostriecin binding site, the N-terminal region of PP1 was ligated to the C-terminal region of PP2A (in bold) to produce a PP1/PP2A-chimera (CRHM2). Previous studies indicate that the okadaic acid binding domain is contained in the C-terminal region of PP2A that was incorporated into CRHM2.
FIG. 7: Effect of fostriecin and okadaic acid on the activity of recombinant CRHM2. CRHM2 activity was assayed in the presence of the indicated amount of fostriecin (FIG. 7A) or okadaic acid (FIG. 7B). […] Assays were conducted as described in FIG. 5. Each point represents the mean ± SE (n>6).
PP1, an enzyme highly homologous to PP2A, could be expressed in a stable manner and in relatively large amounts. Thus, human PP1 was cloned and subcloned into a bacterial expression vector as was done for PP2A. […] To create a hybrid enzyme (a PP1/PP2A chimera) that could be expressed stably like rPP1 but would bind okadaic acid with high affinity like PP2A, a number of mutant forms of PP1 and PP2A were constructed. Then, through mutational analysis, the okadaic acid binding domain of PP2A was identified. The okadaic acid binding domain from PP2A was cloned behind the amino terminal domain of PP1. The hybrid, referred to as CRHM-2, was subcloned into an expression vector. Restriction analysis of CRHM-2 confirmed the identity of the construct.
In these studies, the bacterial expressed PP1/PP2A hybrid enzyme was produced by growing appropriate strains of transformed E. coli at 18° C. for 48 hours in LB-media containing 50 μg/ml ampicillin, 1 mM MnCl2, and 50 μM IPTG. The bacteria were lysed with a French Press, and after centrifugation at 15,000×g for 45 min, the phosphatase was partially purified via ion-exchange [High Q (BioRad) and MonoQ (Pharmacia)] and affinity [Heparin-Sepharose (Pharmacia)] chromatography. The sensitivity of the chimera to fostriecin was determined employing the same protein phosphatase assay employed with endogenous PP1 or PP2A, with the addition of MnCl2 (1 mM) to the assay buffer.

SMILES: CC(O)(/C=C/C1CC=CC(=O)O1)C(CC(O)\C=C/C=C\C=C\CO)OP(=O)(O)O (centres unmarked) [fostriecin]
- sensitivity / potency of inhibition of the chimera ([32P]-phosphohistone, 1 mM MnCl2 in assay buffer): sensitive
- binding affinity to the recombinant hybrid enzyme (enzyme printed as rPP2Ac-1): affinity comparable to that of PP1
